According to the supplement of paper PMC10307832:

Legend:
Assay in all cases: relative viability (nuclei count vs DMSO), 5 days (fraction); higher = more cells survive
FG-4592 + Decitabine = compound: Cc1nc(C(=O)NCC(=O)O)c(O)c2ccc(Oc3ccccc3)cc12 [FG-4592] + Nc1ncn([C@H]2C[C@H](O)[C@@H](CO)O2)c(=O)n1 [Decitabine] (partner 2 µM)
Outline: (§1)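 A single step with final 0.05% Triton X-100, 1% formaldehyde and 1 ug/ml Hoechst fixed the cells and stained nuclei 5 days after treatment. Lung cancer cell lines in 1536-well plates had been treated by pin tool the day after seeding with one drug alone or a fixed anchor-drug dose plus five library-drug doses (not always all listed) in √10 steps, and nuclei were counted on 4× images. Relative viability is the ratio of nuclei in treated wells to nuclei in vehicle wells, taken as the median of duplicate plates.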

IU1-47 + Crizotinib = compound: CC1=CC(=C(N1C2=CC=C(C=C2)Cl)C)C(=O)CN3CCCCC3 [IU1-47] + C[C@@H](Oc1cc(-c2cnn(C3CCNCC3)c2)cnc1N)c1c(Cl)ccc(F)c1Cl [Crizotinib] (partner 1 µM)
Outline: as §1

IU1-47 + Linsitinib = compound: CC1=CC(=C(N1C2=CC=C(C=C2)Cl)C)C(=O)CN3CCCCC3 [IU1-47] + C[C@]1(O)C[C@@H](c2nc(-c3ccc4ccc(-c5ccccc5)nc4c3)c3c(N)nccn32)C1 [Linsitinib] (partner 1 µM)
Outline: as §1

FG-4592 + Palbociclib = compound: Cc1nc(C(=O)NCC(=O)O)c(O)c2ccc(Oc3ccccc3)cc12 [FG-4592] + CC(=O)c1c(C)c2cnc(Nc3ccc(N4CCNCC4)cn3)nc2n(C2CCCC2)c1=O [Palbociclib] (partner 0.5 µM)
Outline: as §1

Row | Cell Line | relative viability (FG-4592 + Decitabine; first compound 0.08 µM) | relative viability (FG-4592 + Decitabine; first compound 0.253 µM) | relative viability (FG-4592 + Decitabine; first compound 0.8 µM) | relative viability (FG-4592 + Decitabine; first compound 2.53 µM) | relative viability (FG-4592 + Decitabine; first compound 8 µM) | relative viability (IU1-47 + Crizotinib; first compound 0.08 µM) | relative viability (IU1-47 + Crizotinib; first compound 0.253 µM) | relative viability (IU1-47 + Crizotinib; first compound 0.8 µM) | relative viability (IU1-47 + Crizotinib; first compound 2.53 µM) | relative viability (IU1-47 + Crizotinib; first compound 8 µM) | relative viability (IU1-47 + Linsitinib; first compound 0.08 µM) | relative viability (IU1-47 + Linsitinib; first compound 0.253 µM) | relative viability (IU1-47 + Linsitinib; first compound 0.8 µM) | relative viability (IU1-47 + Linsitinib; first compound 2.53 µM) | relative viability (IU1-47 + Linsitinib; first compound 8 µM) | relative viability (FG-4592 + Palbociclib; first compound 0.08 µM) | relative viability (FG-4592 + Palbociclib; first compound 0.253 µM) | relative viability (FG-4592 + Palbociclib; first compound 0.8 µM) | relative viability (FG-4592 + Palbociclib; first compound 2.53 µM) | relative viability (FG-4592 + Palbociclib; first compound 8 µM)
1 | PC-14 | 0.193 | 0.243 | 0.213 | 0.195 | 0.226 | 0.921 | 0.888 | 0.845 | 0.999 | 0.926 | 1.02 | 1.04 | 1.01 | 1.05 | 0.94 | 0.545 | 0.415 | 0.571 | 0.486 | 0.488
2 | RERF-LC-KJ | 0.811 | 0.697 | 0.76 | 0.81 | 0.667 | 0.805 | 0.86 | 0.787 | 0.848 | 0.884 | 0.889 | 0.865 | 0.872 | 0.957 | 0.893 | 1.02 | 0.89 | 0.937 | 1.05 | 1.04
3 | SK-LU-1 | 0.66 | 0.55 | 0.671 | 0.582 | 0.476 | 0.975 | 0.912 | 0.963 | 0.996 | 0.814 | 1.16 | 1.08 | 1.32 | 1.16 | 1.17 | 0.308 | 0.325 | 0.345 | 0.378 | 0.372
4 | SK-MES-1 | 0.369 | 0.424 | 0.419 | 0.414 | 0.385 | 1.08 | 1.04 | 0.908 | 0.984 | 0.994 | 1.13 | 1.31 | 1.12 | 1.01 | 1.11 | 0.331 | 0.287 | 0.284 | 0.32 | 0.327
5 | SW 1573 | 0.516 | 0.505 | 0.537 | 0.482 | 0.447 | 0.728 | 0.796 | 0.761 | 0.859 | 0.903 | 0.942 | 0.674 | 0.694 | 0.746 | 0.843 | 0.342 | 0.368 | 0.382 | 0.31 | 0.238
